From patent US5395757A, “Method for the hydrolysis of sugar compounds and reagent therefor” (Takara Shuzo Co., Ltd., priority 1991, dated 1995)

Key:
lacto-N-biosidase [1] = experiment: Substrate specificity of lacto-N-biosidase (hydrolysis of oligosaccharides, HPLC); type: biochemical, Streptomyces sp 142; settings: for hydrolysis by lacto-N-biosidase: oligosaccharides labelled with 2-aminopyridine
Description: Lacto-N-biosidase was assayed by being incubated for 20 min with the compound described by formula II below at the concentration of 2 μM at 37° C. in 10 μl of 100 mM potassium phosphate buffer, pH 6.0.
wherein PA represents a pyridylamino residue. […] Then 40 μl of 1% trifluoroacetic acid was added to the reaction mixture to stop the reaction. A portion containing 10 pmol of PA-oligosaccharides was then analyzed by HPLC with an amino-silica column (Palpak Type N column, 4.6×250 mm, Takara Shuzo), and detected by fluorescence with the excitation and emission wavelengths of 310 and 380 nm, respectively. Elution was at the flow rate of 1.0 ml/min at 40° C. with a 70:30 (v/v) mixture of acetonitrile and 0.2M triethylamine acetate buffer, pH 7.3. The degree of hydrolysis was calculated from the peak areas of the substrate and the product, PA-lactose, in comparison with the peak area of the corresponding standard PA-oligosaccharide. One unit of activity was defined as the amount of enzyme needed to release 1 μmol of PA-lactose per minute under the conditions described above.

[2] = test system: lacto-N-biosidase and α-1,3/4 fucosidase; experiment: Digestion with a mixture of lacto-N-biosidase and α-1,3/4 fucosidase; type: biochemical; settings: lacto-N-biosidase plus α-1,3/4 fucosidase
Text: The method and the reagent of this invention can be used in studies done to identify type 1 structures in glycoconjugates, to distinguish type 1 oligosaccharides from type 2 oligosaccharides, and to elucidate the functions of lacto-N-biosyl residues in glycoconjugates. In particular, with its use, the Le^a structure can be easily distinguished from the Le^x structure by use of lacto-N-biosidase and α-1,3/4 fucosidase (Ogata-Arakawa et al., Arch. Biochem. Biophys. 181, 353, 1977; Scudder et al., J. Biol. Chem. 265, 16472, 1990; Sano et al., J. Biol. Chem. 267, 1522, 1992).

lacto-N-biosidase [3] = experiment: Structural analysis of reaction products of lacto-N-biosidase (Example 3); type: biochemical, Streptomyces sp 142; settings: about 100 nmol substrate, 0.6 mU enzyme, 60 h at 37° C., pH 6.0
Description: To elucidate the reaction products of lacto-N-biosidase obtained by the method of example 1, the structures of the enzyme reaction products were analyzed in detail with the PA-oligosaccharide shown as formula VI below as the substrate. PA-oligosaccharide described by formula VI (about 100 nmol; Takara Shuzo Co.) mixed with lacto-N-biosidase (total, 0.6 mU) prepared as described in example 1 was digested for 60 h at 37° C. in a final volume of 360 μl containing 0.1M potassium phosphate buffer, pH 6.0. The reaction mixture was pyridylaminated by the method described in U.S. Pat. No. 4,975,533 and analyzed by HPLC with an amino-silica column. There were two peaks of PA-oligosaccharides: fractions 1 and 2. The elution position of fraction 1 was the same as that of the PA-oligosaccharide described by formula VII, and the elution position of fraction 2 was the same as that of PA-oligosaccharide described by formula VIII below. The amounts of these two products, calculated from the peak areas of fractions 1 and 2 , were identical to that of the PA-oligosaccharide substrate of formula VI.

Q: Which “hydrolysis by lacto-N-biosidase” value (lacto-N-biosidase [1]) does the source give for CC(=O)N[C@H]1[C@H](O[C@H]2[C@@H](O)[C@@H](CO)O[C@@H](O[C@@H]([C@H](O)[C@@H](O)CNc3ccccn3)[C@H](O)CO)[C@@H]2O)O[C@H](CO)[C@@H](O)[C@@H]1O[C@@H]1O[C@H](CO)[C@H](O)[C@H](O)[C@H]1O[C@@H]1O[C@@H](C)[C@@H](O)[C@@H](O)[C@@H]1O here?
A: did not hydrolyze

Q: How did the “hydrolysis by lacto-N-biosidase” value (lacto-N-biosidase [1]) turn out when CC(=O)N[C@H]1[C@H](O[C@H]2[C@@H](O)[C@@H](CO)O[C@@H](O[C@@H]([C@H](O)[C@@H](O)CNc3ccccn3)[C@H](O)CO)[C@@H]2O)O[C@H](CO)[C@@H](O[C@@H]2O[C@H](CO)[C@H](O)[C@H](O)[C@H]2O)[C@@H]1O was run?
A: did not hydrolyze

Q: For CC(=O)N[C@H]1[C@H](O[C@H]2[C@@H](O)[C@@H](CO)O[C@@H](O[C@@H]([C@H](O)[C@@H](O)CNc3ccccn3)[C@H](O)CO)[C@@H]2O)O[C@H](CO)[C@@H](O)[C@@H]1O[C@@H]1O[C@H](CO)[C@H](O)[C@H](O)[C@H]1O, which “hydrolysis by lacto-N-biosidase” value (lacto-N-biosidase [1]) is on record?
A: specifically hydrolyzed

Q: CC(=O)N[C@H]1[C@H](O[C@H]2[C@@H](O)[C@@H](CO)O[C@@H](O[C@@H]([C@H](O)[C@@H](O)CNc3ccccn3)[C@H](O)CO)[C@@H]2O)O[C@H](CO)[C@@H](O[C@@H]2O[C@H](CO)[C@H](O)[C@H](O)[C@H]2O)[C@@H]1O[C@@H]1O[C@@H](C)[C@@H](O)[C@@H](O)[C@@H]1O [PA-lacto-N-fucopentaose III] was tested. Which “product obtained on treatment with the mixture of the two enzymes” value [2] did it give?
A: PA-lacto-N-neotetraose was obtained

Q: CC(=O)N[C@H]1[C@H](O[C@H]2[C@@H](O)[C@@H](CO)O[C@@H](O[C@@H]([C@H](O)[C@@H](O)CNc3ccccn3)[C@H](O)CO)[C@@H]2O)O[C@H](CO)[C@@H](O[C@@H]2O[C@@H](C)[C@@H](O)[C@@H](O)[C@@H]2O)[C@@H]1O[C@@H]1O[C@H](CO)[C@H](O)[C@H](O)[C@H]1O [PA-lacto-N-fucopentaose II] was tested. Which “product obtained on treatment with the mixture of the two enzymes” value [2] did it give?
A: PA-lactose was obtained

Q: How did the “hydrolysis by lacto-N-biosidase” value (lacto-N-biosidase [1]) turn out when CC(=O)N[C@H]1[C@H](O[C@@H]2[C@H](O)[C@@H](O)[C@H](O[C@@H]([C@H](O)[C@@H](O)CNc3ccccn3)[C@H](O)CO)O[C@@H]2CO)O[C@H](CO)[C@H](O)[C@@H]1O[C@@H]1O[C@H](CO)[C@H](O)[C@H](O)[C@H]1O [asialo GM1 tetrasaccharide] was run?
A: did not hydrolyze

Q: CC(=O)N[C@H]1[C@H](O[C@@H]([C@H](O)[C@H](CNc2ccccn2)NC(C)=O)[C@H](O)CO)O[C@H](CO)[C@@H](O[C@@H]2O[C@H](CO[C@H]3O[C@H](CO)[C@@H](O)[C@H](O)[C@@H]3O[C@@H]3O[C@H](CO)[C@@H](O[C@@H]4O[C@H](CO)[C@H](O)[C@H](O)[C@H]4O)[C@H](O)[C@H]3NC(C)=O)[C@@H](O)[C@H](O[C@H]3O[C@H](CO)[C@@H](O[C@@H]4O[C@H](CO)[C@@H](O)[C@H](O[C@@H]5O[C@H](CO)[C@H](O)[C@H](O)[C@H]5O)[C@H]4NC(C)=O)[C@H](O)[C@@H]3O[C@@H]3O[C@H](CO)[C@@H](O[C@@H]4O[C@H](CO)[C@H](O)[C@H](O)[C@H]4O)[C@H](O)[C@H]3NC(C)=O)[C@@H]2O)[C@@H]1O [formula III] was tested. Which “products of hydrolysis by lacto-N-biosidase” value (lacto-N-biosidase [1]) did it give?
A: lacto-N-biose and the N-acetyllactosamine type of biantennary sugar chain

Q: Which “products of hydrolysis by lacto-N-biosidase” value (lacto-N-biosidase [1]) does the source give for CC(=O)N[C@H]1[C@H](Oc2ccc([N+](=O)[O-])cc2)O[C@H](CO)[C@@H](O)[C@@H]1O[C@@H]1O[C@H](CO)[C@H](O)[C@H](O)[C@H]1O [formula V, Galβ1--3GlcNAcβ1--p--nitrophenol] here?
A: lacto-N-biose and p-nitrophenol

Q: How did the “linkage cleaved by the enzyme reaction” value (lacto-N-biosidase [3]) turn out when CC(=O)N[C@H]1[C@H](O[C@@H]([C@H](O)[C@H](CNc2ccccn2)NC(C)=O)[C@H](O)CO)O[C@H](CO)[C@@H](O[C@@H]2O[C@H](CO[C@H]3O[C@H](CO)[C@@H](O)[C@H](O)[C@@H]3O[C@@H]3O[C@H](CO)[C@@H](O[C@@H]4O[C@H](CO)[C@H](O)[C@H](O)[C@H]4O)[C@H](O)[C@H]3NC(C)=O)[C@@H](O)[C@H](O[C@H]3O[C@H](CO)[C@@H](O[C@@H]4O[C@H](CO)[C@@H](O)[C@H](O[C@@H]5O[C@H](CO)[C@H](O)[C@H](O)[C@H]5O)[C@H]4NC(C)=O)[C@H](O)[C@@H]3O[C@@H]3O[C@H](CO)[C@@H](O[C@@H]4O[C@H](CO)[C@H](O)[C@H](O)[C@H]4O)[C@H](O)[C@H]3NC(C)=O)[C@@H]2O)[C@@H]1O [formula VI] was run?
A: only lacto-N-biosidic linkage in the substrate was cleaved

Q: With CC(=O)N[C@H]1[C@H](O[C@H]2[C@@H](O)[C@@H](CO)O[C@@H](O[C@H]3[C@H](O)[C@@H](O)C(O)O[C@@H]3CO)[C@@H]2O)O[C@H](CO)[C@@H](O)[C@@H]1O (stereo partly drawn) [lacto-N-triose] as the compound, how does the “hydrolysis by lacto-N-biosidase” value (lacto-N-biosidase [1]) read?
A: did not hydrolyze

Q: Which “hydrolysis by lacto-N-biosidase” value (lacto-N-biosidase [1]) does the source give for poly-N-acetyllactosamine here?
A: did not hydrolyze

Q: sialyl lacto-N-tetraose was tested. Which “hydrolysis by lacto-N-biosidase” value (lacto-N-biosidase [1]) did it give?
A: did not hydrolyze
